Reference: the NIST ThermoML archive (doi:10.1016/j.fluid.2018.09.026)
Values joined by “and” are separate entries in the source; they are usually repeats but may differ in a detail not shown here. Equal entries are not always repeated. ± gives the expanded uncertainty stated by the source.

Conditions: Liquid; for viscosity: Vibrating wire viscometry; for mass density: Vibrating tube method

OCCOCCOCCO [triethylene glycol]
Conditions | mass density | viscosity
303 K, 65190 kPa | – | 48.95 ± 2 mPa·s
303 K, 66350 kPa | – | 49.26 ± 2 mPa·s
303.15 K, 100 kPa | 1115.2 ± 4.5 kg/m3 and 1115.1 ± 4.5 kg/m3 | –
303.15 K, 630 kPa | 1115.4 ± 4.5 kg/m3 | –
303.15 K, 1130 kPa | 1115.6 ± 4.5 kg/m3 | –
303.15 K, 1620 kPa | 1115.9 ± 4.5 kg/m3 | –
303.15 K, 2140 kPa | 1116.1 ± 4.5 kg/m3 | –
303.15 K, 3070 kPa | 1116.5 ± 4.5 kg/m3 | –
303.15 K, 5080 kPa | 1117.4 ± 4.5 kg/m3 | –
303.15 K, 6960 kPa | 1118.3 ± 4.5 kg/m3 | –
303.15 K, 9960 kPa | 1119.6 ± 4.5 kg/m3 | –
303.15 K, 14840 kPa | 1121.7 ± 4.5 kg/m3 | –
303.15 K, 19750 kPa | 1123.8 ± 4.5 kg/m3 | –
303.15 K, 24670 kPa | 1125.9 ± 4.5 kg/m3 | –
303.15 K, 29570 kPa | 1127.9 ± 4.5 kg/m3 | –
303.15 K, 34500 kPa | 1129.9 ± 4.5 kg/m3 | –
303.15 K, 39360 kPa | 1131.9 ± 4.6 kg/m3 | –
303.15 K, 44300 kPa | 1133.8 ± 4.6 kg/m3 | –
303.15 K, 49190 kPa | 1135.7 ± 4.6 kg/m3 | –
303.15 K, 54090 kPa | 1137.6 ± 4.6 kg/m3 | –
303.15 K, 58850 kPa | 1139.3 ± 4.6 kg/m3 | –
303.15 K, 63890 kPa | 1141.2 ± 4.6 kg/m3 | –
303.15 K, 68750 kPa | 1142.9 ± 4.6 kg/m3 | –
313.15 K, 100 kPa | 1107.4 ± 4.4 kg/m3 | –
313.15 K, 670 kPa | 1107.6 ± 4.4 kg/m3 | –
313.15 K, 1130 kPa | 1107.9 ± 4.4 kg/m3 | –
313.15 K, 1600 kPa | 1108.1 ± 4.4 kg/m3 | –
313.15 K, 2080 kPa | 1108.3 ± 4.4 kg/m3 | –
313.15 K, 3100 kPa | 1108.8 ± 4.4 kg/m3 | –
313.15 K, 5030 kPa | 1109.7 ± 4.5 kg/m3 | –
313.15 K, 7010 kPa | 1110.6 ± 4.5 kg/m3 | –
313.15 K, 10010 kPa | 1112 ± 4.5 kg/m3 | –
313.15 K, 14880 kPa | 1114.2 ± 4.5 kg/m3 | –
313.15 K, 19750 kPa | 1116.4 ± 4.5 kg/m3 | –
313.15 K, 24680 kPa | 1118.6 ± 4.5 kg/m3 | –
313.15 K, 29560 kPa | 1120.6 ± 4.5 kg/m3 | –
313.15 K, 34510 kPa | 1122.7 ± 4.5 kg/m3 | –
313.15 K, 39330 kPa | 1124.7 ± 4.5 kg/m3 | –
313.15 K, 44290 kPa | 1126.7 ± 4.5 kg/m3 | –
313.15 K, 49180 kPa | 1128.6 ± 4.5 kg/m3 | –
313.15 K, 54160 kPa | 1130.6 ± 4.6 kg/m3 | –
313.15 K, 59000 kPa | 1132.4 ± 4.6 kg/m3 | –
313.15 K, 63910 kPa | 1134.3 ± 4.6 kg/m3 | –
313.15 K, 68840 kPa | 1136 ± 4.6 kg/m3 | –
313.26 K, 170 kPa | – | 18.68 ± 1.2 mPa·s [middle of 4 runs]
313.26 K, 510 kPa | – | 18.97 ± 0.78 mPa·s and 18.84 ± 0.77 mPa·s and 18.73 ± 0.77 mPa·s
313.26 K, 520 kPa | – | 18.83 ± 0.77 mPa·s
313.26 K, 930 kPa | – | 18.88 ± 1.2 mPa·s [middle of 6 runs]
313.26 K, 4460 kPa | – | 19.45 ± 0.79 mPa·s
313.26 K, 4470 kPa | – | 19.52 ± 0.79 mPa·s [middle of 4 runs]
313.26 K, 9660 kPa | – | 20.02 ± 0.81 mPa·s
313.26 K, 9670 kPa | – | 20.2 ± 0.82 mPa·s and 20.18 ± 0.82 mPa·s
313.26 K, 19980 kPa | – | 22.07 ± 0.9 mPa·s and 21.92 ± 0.89 mPa·s
313.26 K, 19990 kPa | – | 21.69 ± 0.88 mPa·s
313.26 K, 29400 kPa | – | 23.4 ± 1.8 mPa·s and 23.28 ± 1.8 mPa·s
313.26 K, 29410 kPa | – | 23.3 ± 1.8 mPa·s
313.26 K, 29530 kPa | – | 23.21 ± 0.94 mPa·s
313.26 K, 29540 kPa | – | 23.53 ± 0.96 mPa·s
313.26 K, 29550 kPa | – | 23.54 ± 0.96 mPa·s
313.26 K, 29570 kPa | – | 23.18 ± 1.7 mPa·s
313.26 K, 49800 kPa | – | 26.84 ± 1.1 mPa·s
313.26 K, 49830 kPa | – | 27.18 ± 1.1 mPa·s
313.26 K, 49920 kPa | – | 27.22 ± 1.1 mPa·s
313.26 K, 49950 kPa | – | 26.89 ± 1.1 mPa·s
313.26 K, 64360 kPa | – | 29.73 ± 2.2 mPa·s
313.26 K, 64840 kPa | – | 30.3 ± 1.6 mPa·s
313.26 K, 65380 kPa | – | 30.08 ± 1.2 mPa·s
313.26 K, 66900 kPa | – | 30.18 ± 1.3 mPa·s
323.15 K, 100 kPa | 1099.6 ± 4.4 kg/m3 and 1099.5 ± 4.4 kg/m3 | –
323.15 K, 590 kPa | 1099.8 ± 4.4 kg/m3 | –
323.15 K, 1140 kPa | 1100 ± 4.4 kg/m3 | –
323.15 K, 1600 kPa | 1100.3 ± 4.4 kg/m3 | –
323.15 K, 2080 kPa | 1100.5 ± 4.4 kg/m3 | –
323.15 K, 3020 kPa | 1101 ± 4.4 kg/m3 | –
323.15 K, 5050 kPa | 1101.9 ± 4.4 kg/m3 | –
323.15 K, 7000 kPa | 1102.9 ± 4.4 kg/m3 | –
323.15 K, 9970 kPa | 1104.3 ± 4.4 kg/m3 | –
323.15 K, 14870 kPa | 1106.7 ± 4.4 kg/m3 | –
323.15 K, 19780 kPa | 1108.9 ± 4.5 kg/m3 | –
323.15 K, 24700 kPa | 1111.2 ± 4.5 kg/m3 | –
323.15 K, 29650 kPa | 1113.3 ± 4.5 kg/m3 | –
323.15 K, 34470 kPa | 1115.4 ± 4.5 kg/m3 | –
323.15 K, 39340 kPa | 1117.5 ± 4.5 kg/m3 | –
323.15 K, 44250 kPa | 1119.6 ± 4.5 kg/m3 | –
323.15 K, 49170 kPa | 1121.6 ± 4.5 kg/m3 | –
323.15 K, 54080 kPa | 1123.5 ± 4.5 kg/m3 | –
323.15 K, 58970 kPa | 1125.5 ± 4.5 kg/m3 | –
323.15 K, 63800 kPa | 1127.3 ± 4.5 kg/m3 | –
323.15 K, 68780 kPa | 1129.2 ± 4.6 kg/m3 | –
333.15 K, 100 kPa | 1091.7 ± 4.4 kg/m3 | –
333.15 K, 660 kPa | 1092 ± 4.4 kg/m3 | –
333.15 K, 1110 kPa | 1092.2 ± 4.4 kg/m3 | –
333.15 K, 1600 kPa | 1092.5 ± 4.4 kg/m3 | –
